The source of these data is patent EP0074599A1, “5,6-cis-Carbapenem derivatives, their production and use” (Takeda Chemical Industries, Ltd., priority 1981, dated 1983).

Holding throughout (assay): Minimal Inhibitory Concentration (MIC), agar dilution method
Assay type in all cases: cell-based
Parameters in all cases: unit not given here
On the technique in general: In agar dilution, organisms are placed on agar that contains the substance at set levels.

For one experiment, the system named is E. cloacae IFO 12937. Conditions: Test Microorganism (9) E. cloacae IFO 12937; Trypticase soy agar, 37°C for 18 hours. As to the method:
(§1) Minimal Inhibitory Concentration (MIC)
(§2) The Minimal Inhibitory Concentrations of the tested compounds were determined according to the agar dilution method. Namely, 1.0 ml each of aqueous solution of the tested compounds diluted by serial dilutions was poured into test petri dishes, subsequently 9.0 ml each of Trypticase soy agar was poured into the dishes and mixed. On each of the mixed agar plates, one loopful of bacterial suspension (about 10^8 CFU/ml) of test microorganism was streaked.
(§3) After the incubation at 37°C for 18 hours, the lowest concentration of the tested compounds in the medium which caused apparently complete inhibition of growth of the test microorganism was taken to be minimal inhibitory concentration.
(§4) • (1) S. aureus FDA 209P • (2) S. aureus 308 A-1 • (3) S. aureus 1840 • (4) E. coli NIHJ JC-2 • (5) E. coli 0-111 • (6) E. coli T-7 • (7) C. freundii IFO 12681 • (8) K. pneumoniae DT • (9) E. cloacae IFO 12937 • (10) S. marcescens IFO 12648 • (11) P. vulgaris IFO 3988 • (12) P.-mirabilis IFO 3849 • (13) P. morganii IFO 3168 • (14) P. aeruginosa IFO 3455 • (15) P. aeruginosa U 31 • (16) A. calcoaceticus IFO 13006

The next experiment concerns P. morganii IFO 3168. The conditions noted are these: Test Microorganism (13) P. morganii IFO 3168; Trypticase soy agar, 37°C for 18 hours. As to the method:
as §1, §2, §3, §4

The next experiment relates to K. pneumoniae DT. Conditions: Test Microorganism (8) K. pneumoniae DT; Trypticase soy agar, 37°C for 18 hours. As to the method: as §1, §2, §3, §4
The test system of a further experiment is S. aureus 308 A-1. Conditions: Test Microorganism (2) S. aureus 308 A-1; Trypticase soy agar, 37°C for 18 hours. As to the method:
as §1, §2, §3, §4

The test system of another experiment is P. vulgaris IFO 3988. The conditions noted are these: Test Microorganism (11) P. vulgaris IFO 3988; Trypticase soy agar, 37°C for 18 hours. The procedure:
as §1, §2, §3, §4

The subject of a further experiment is S. marcescens IFO 12648. The conditions noted are these: Test Microorganism (10) S. marcescens IFO 12648; Trypticase soy agar, 37°C for 18 hours. As to the method: as §1, §2, §3, §4
The test system of a further experiment is P. aeruginosa U 31. Conditions: Test Microorganism (15) P. aeruginosa U 31; Trypticase soy agar, 37°C for 18 hours. As to the method: as §1, §2, §3, §4
The test system of the next experiment is E. coli 0-111. Conditions: Test Microorganism (5) E. coli 0-111; Trypticase soy agar, 37°C for 18 hours. The procedure:
as §1, §2, §3, §4

The next experiment concerns S. aureus FDA 209P. Conditions: Test Microorganism (1) S. aureus FDA 209P; Trypticase soy agar, 37°C for 18 hours. The procedure: as §1, §2, §3, §4
Another experiment deals with P.-mirabilis IFO 3849. The conditions noted are these: Test Microorganism (12) P.-mirabilis IFO 3849; Trypticase soy agar, 37°C for 18 hours. As to the method:
as §1, §2, §3, §4

In another experiment the test system is S. aureus 1840. Conditions: Test Microorganism (3) S. aureus 1840; Trypticase soy agar, 37°C for 18 hours. As to the method: as §1, §2, §3, §4
The next experiment concerns C. freundii IFO 12681. Conditions: Test Microorganism (7) C. freundii IFO 12681; Trypticase soy agar, 37°C for 18 hours. As to the method:
as §1, §2, §3, §4

The test system of a further experiment is E. coli T-7. The conditions noted are these: Test Microorganism (6) E. coli T-7; Trypticase soy agar, 37°C for 18 hours. The procedure: as §1, §2, §3, §4
The next experiment deals with P. aeruginosa IFO 3455. The conditions noted are these: Test Microorganism (14) P. aeruginosa IFO 3455; Trypticase soy agar, 37°C for 18 hours. As to the method:
as §1, §2, §3, §4

In experiment [1] the test system is A. calcoaceticus IFO 13006. Conditions: Test Microorganism (16) A. calcoaceticus IFO 13006; Trypticase soy agar, 37°C for 18 hours. The procedure: as §1, §2, §3, §4
The next experiment concerns E. coli NIHJ JC-2. Conditions: Test Microorganism (4) E. coli NIHJ JC-2; Trypticase soy agar, 37°C for 18 hours. As to the method:
as §1, §2, §3, §4

Turning to `CC(C)(O)[C@@H]1C(=O)N2C(C(=O)O)=C(SCCCN)C[C@H]12` [Example 33, 5,6-cis-3-(3-Aminopropylthio)-6-(l-hydroxy-l-methylethyl)-7-oxo-l-azabicyclo[3.2.0]hept-2-ene-2-carboxylic acid], the “Minimal Inhibitory Concentration (MIC)” value was found to be 6.25 in the experiment with E. cloacae IFO 12937; 50 in the experiment with P. morganii IFO 3168; 6.25 in the experiment on K. pneumoniae DT; 0.78 in the experiment on S. aureus 308 A-1; 50 in the experiment with P. vulgaris IFO 3988; 6.25 with S. marcescens IFO 12648. Moreover, the “Minimal Inhibitory Concentration (MIC)” value was found to be 50 in the experiment with P. aeruginosa U 31; 0.39 in the experiment with E. coli 0-111; 0.78 with S. aureus FDA 209P; 50 in the experiment on P.-mirabilis IFO 3849; 0.78 in the experiment with S. aureus 1840; 3.13 with C. freundii IFO 12681. Moreover, the “Minimal Inhibitory Concentration (MIC)” value in the experiment on E. coli T-7 is 0.78; in the experiment on P. aeruginosa IFO 3455, 12.5; in [1], 3.13; with E. coli NIHJ JC-2 it was 0.39.

Take `CC(C)(O)[C@@H]1C(=O)N2C(C(=O)O)=C(SCCNC=N)C[C@H]12` [Example 46, 5,6-cis-3-(2-formimidoylaminoethylthio)-6-(1-hydroxy-1-methylethyl)-7-oxo-l-azabicyclo[3.2.0]hept-2-ene-2-carboxylic acid]: the “Minimal Inhibitory Concentration (MIC)” value in the experiment with E. cloacae IFO 12937 worked out at 6.25; in the experiment on P. morganii IFO 3168, 25; in the experiment with K. pneumoniae DT, 6.25; with S. aureus 308 A-1, 0.78; in the experiment on P. vulgaris IFO 3988 it was 25; with S. marcescens IFO 12648, 3.13. Further, the “Minimal Inhibitory Concentration (MIC)” value with P. aeruginosa U 31 is 6.25; in the experiment with E. coli 0-111, 0.39; in the experiment with S. aureus FDA 209P, 0.39; with P.-mirabilis IFO 3849, 25; with S. aureus 1840 it was 0.78; with C. freundii IFO 12681, 1.56. Moreover, the “Minimal Inhibitory Concentration (MIC)” value in the experiment on E. coli T-7 is reported as 0.78; with P. aeruginosa IFO 3455, 3.13; in experiment [1], 6.25; in the experiment with E. coli NIHJ JC-2, 0.39.

As to `CC(C)(O)[C@@H]1C(=O)N2C(C(=O)O)=C(Sc3cccnn3)C[C@H]12` [Example 20, Sodium 5,6-cis-3-(3-pyridazinylthio)-6-(l-hydroxy-l-methylethyl)-7-oxo-1-azabicyclo[3.2.0]hept-2-ene-2-carboxylate], the “Minimal Inhibitory Concentration (MIC)” value in the experiment on E. cloacae IFO 12937 is given as 1.56; in the experiment with P. morganii IFO 3168 it was 3.13; with K. pneumoniae DT it was 0.78; with S. aureus 308 A-1, 0.39; in the experiment with P. vulgaris IFO 3988, 3.13; with S. marcescens IFO 12648, 1.56. For the same compound, the “Minimal Inhibitory Concentration (MIC)” value was greater than 100 with P. aeruginosa U 31; 0.2 in the experiment on E. coli 0-111; 0.39 in the experiment with S. aureus FDA 209P; 3.13 in the experiment with P.-mirabilis IFO 3849; 0.78 in the experiment on S. aureus 1840; 0.78 in the experiment with C. freundii IFO 12681. Besides, the “Minimal Inhibitory Concentration (MIC)” value with E. coli T-7 is listed as 3.13; with P. aeruginosa IFO 3455 it was 50; in [1] it was 12.5; in the experiment with E. coli NIHJ JC-2, 0.78.

On to `CN(C)CCSC1=C(C(=O)O)N2C(=O)[C@@H](C(C)(C)O)[C@H]2C1` [Example 26, 5,6-cis-3-[2-(N,N-Dimethylaminoethyl)thio]-6-(1-hydroxy-1-methylethyl)-7-oxo-1-azabicyclo[3.2.0]hept-2-ene-2-carboxylic acid], for which the “Minimal Inhibitory Concentration (MIC)” value stood at 6.25 in the experiment with E. cloacae IFO 12937; 50 with P. morganii IFO 3168; 25 with K. pneumoniae DT; 0.39 with S. aureus 308 A-1; 50 with P. vulgaris IFO 3988; 6.25 with S. marcescens IFO 12648. For the same compound, the “Minimal Inhibitory Concentration (MIC)” value worked out at 50 in the experiment on P. aeruginosa U 31; 0.39 in the experiment with E. coli 0-111; 0.39 with S. aureus FDA 209P; 50 with P.-mirabilis IFO 3849; 0.78 in the experiment with S. aureus 1840; 3.13 in the experiment on C. freundii IFO 12681. In addition, the “Minimal Inhibitory Concentration (MIC)” value is 0.78 in the experiment on E. coli T-7, 25 in the experiment on P. aeruginosa IFO 3455, 12.5 in [1] and 0.78 with E. coli NIHJ JC-2.

`CC(C)(O)[C@@H]1C(=O)N2C(C(=O)O)=C(SCCN)C[C@H]12` [Example 2]: the “Minimal Inhibitory Concentration (MIC)” value in the experiment with E. cloacae IFO 12937 was 12.5; in the experiment on P. morganii IFO 3168 it was 50; with K. pneumoniae DT, 12.5; with S. aureus 308 A-1 it was 0.78; in the experiment with P. vulgaris IFO 3988, 50; in the experiment on S. marcescens IFO 12648 it was 12.5. Besides, the “Minimal Inhibitory Concentration (MIC)” value in the experiment with P. aeruginosa U 31 is given as 25; in the experiment with E. coli 0-111, 0.39; with S. aureus FDA 209P, 0.39; with P.-mirabilis IFO 3849, 50; in the experiment with S. aureus 1840 it was 1.56; in the experiment with C. freundii IFO 12681, 3.13. Besides, the “Minimal Inhibitory Concentration (MIC)” value with E. coli T-7 is recorded as 1.56; in the experiment with P. aeruginosa IFO 3455 it was 6.25; in [1] it was 3.13; in the experiment with E. coli NIHJ JC-2, 1.56.

In the case of `CC(C)(O)[C@@H]1C(=O)N2C(C(=O)O)=C(SCCCNC=N)C[C@H]12` [Example 47, 5,6-cis-3-(3-formimidoylaminopropylthio)-6-(1-hydroxy-1-methylethyl)-7-oxo-1-azabicyclo[3.2.0]hept-2-ene-2-carboxylic - acid], the “Minimal Inhibitory Concentration (MIC)” value with E. cloacae IFO 12937 amounted to 6.25; in the experiment with P. morganii IFO 3168, 25; with K. pneumoniae DT, 6.25; with S. aureus 308 A-1 it was 0.39; in the experiment with P. vulgaris IFO 3988, 25; with S. marcescens IFO 12648, 3.13. For the same compound, the “Minimal Inhibitory Concentration (MIC)” value amounted to 12.5 with P. aeruginosa U 31; 0.39 with E. coli 0-111; 0.39 with S. aureus FDA 209P; 25 with P.-mirabilis IFO 3849; 0.78 in the experiment with S. aureus 1840; 1.56 with C. freundii IFO 12681. Also, the “Minimal Inhibitory Concentration (MIC)” value is on record as 0.78 in the experiment with E. coli T-7, 3.13 in the experiment with P. aeruginosa IFO 3455, 6.25 in experiment [1] and 0.39 with E. coli NIHJ JC-2.
